The results in this text go back to patent US10894817B2, “Fatty acid modified urocortin-2 analogs for the treatment of diabetes and chronic kidney disease” (priority 2016, dated 2021).

For the assay, the target named is T1, human CRHR2b (Homo sapiens, UniProt Q13324).
T1 construct: expressed in transfected cells; host or cells: Chinese Hamster Ovary (CHO) cells, transient transfection
T1 sequence (Q13324 1-438 isoform Q13324-2): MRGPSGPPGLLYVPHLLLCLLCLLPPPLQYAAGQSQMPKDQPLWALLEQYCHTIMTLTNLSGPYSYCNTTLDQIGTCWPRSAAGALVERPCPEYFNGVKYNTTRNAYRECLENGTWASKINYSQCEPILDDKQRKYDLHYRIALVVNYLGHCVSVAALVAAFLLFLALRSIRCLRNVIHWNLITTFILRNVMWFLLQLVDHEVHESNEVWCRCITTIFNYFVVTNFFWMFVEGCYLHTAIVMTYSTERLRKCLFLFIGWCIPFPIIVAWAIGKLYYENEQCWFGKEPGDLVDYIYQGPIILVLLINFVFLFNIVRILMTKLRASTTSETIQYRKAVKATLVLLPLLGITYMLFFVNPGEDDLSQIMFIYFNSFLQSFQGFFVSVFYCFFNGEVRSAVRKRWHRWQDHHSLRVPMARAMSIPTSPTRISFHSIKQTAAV
In words: human CRHR2b cell-based cAMP assay. Conditions: cAMP assay; Table 26, compounds of Example 9; read-out: hCRHR2b Average EC50. Summed up: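 ED50 values are means ± SEM over several runs, curve-fitted from cAMP in pmol, calibrated against unlabeled-cAMP standards. Detection was HTRF competition, ratio 665/620 nm, after 30 min agonist exposure at 37 °C.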

Starred links: 1 amine or outer side, 2 acyl side, 3 side chain; linkers in the order of their positions; H or OH if unused. Residues, ends and D or L forms follow the SMILES beside them. Groups on a side chain read outwards from the residue. *: point of attachment. C18 diacid = O=C(O)CCCCCCCCCCCCCCCCC(=O)*; γGlu = O=C(O)[C@H](CCC(=O)[*:2])N[*:1]; Palmitoyl = CCCCCCCCCCCCCCCC(=O)*; AEEA = NCCOCCOCC(=O)O

In the case of `CCCCCCCCCCCCCCCC(=O)N[C@@H](CCC(=O)NCCCC[C@H](NC(=O)[C@H](CCC(N)=O)NC(=O)[C@H](CCC(N)=O)NC(=O)[C@H](CCCCN)NC(=O)[C@H](CCC(=O)O)NC(=O)[C@H](CCCCN)NC(=O)[C@H](CCC(=O)O)NC(=O)[C@H](CCC(N)=O)NC(=O)[C@H](CCCCN)NC(=O)[C@H](CCC(=O)O)NC(=O)[C@H](CCC(N)=O)NC(=O)[C@H](CCC(=O)O)NC(=O)[C@H](CC(C)C)NC(=O)[C@H](CC(C)C)NC(=O)[C@@H](NC(=O)[C@H](CCC(N)=O)NC(=O)[C@H](CC(C)C)NC(=O)[C@H](CC(C)C)NC(=O)CNC(=O)[C@@H](NC(=O)[C@@H]1CCCN1C(=O)[C@@H](NC(=O)[C@H](CC(=O)O)NC(=O)[C@H](CC(C)C)NC(=O)[C@H](CO)NC(=O)[C@H](CC(C)C)NC(=O)[C@@H](NC(=O)[C@@H](N)[C@@H](C)CC)C(C)C)C(C)C)[C@@H](C)CC)[C@@H](C)CC)C(=O)N[C@H](C(=O)N[C@H](C(=O)N[C@@H](CC(N)=O)C(=O)N[C@@H](C)C(=O)N[C@@H](CCCNC(=N)N)C(=O)N[C@H](C(=O)N[C@@H](CC(C)C)C(=O)N[C@@H](C)C(=O)N[C@@H](CCCNC(=N)N)C(=O)N[C@H](C(N)=O)C(C)C)[C@@H](C)CC)[C@@H](C)O)[C@@H](C)O)C(=O)O` [Compound 36] (H-IVLSLDVPIGLLQILLEQEKQEKEKQQK([γGlu-Palmitoyl])TTNARILARV-NH2), the EC50 worked out at 331 nM.

With `CCCCCCCCCCCCCCCC(=O)N[C@@H](CCC(=O)NCCCC[C@H](NC(=O)[C@H](C)NC(=O)[C@H](CCC(N)=O)NC(=O)[C@H](CCC(N)=O)NC(=O)[C@H](CCCCN)NC(=O)[C@H](CCC(=O)O)NC(=O)[C@H](CCCCN)NC(=O)[C@H](CCC(=O)O)NC(=O)[C@H](CCC(N)=O)NC(=O)[C@H](CCCCN)NC(=O)[C@H](CCC(=O)O)NC(=O)[C@H](CCC(N)=O)NC(=O)[C@H](CCC(=O)O)NC(=O)[C@H](CC(C)C)NC(=O)[C@H](CC(C)C)NC(=O)[C@@H](NC(=O)[C@H](CCC(N)=O)NC(=O)[C@H](CC(C)C)NC(=O)[C@H](CC(C)C)NC(=O)CNC(=O)[C@@H](NC(=O)[C@@H]1CCCN1C(=O)[C@@H](NC(=O)[C@H](CC(=O)O)NC(=O)[C@H](CC(C)C)NC(=O)[C@H](CO)NC(=O)[C@H](CC(C)C)NC(=O)[C@@H](NC(=O)[C@@H](N)[C@@H](C)CC)C(C)C)C(C)C)[C@@H](C)CC)[C@@H](C)CC)C(=O)N[C@H](C(=O)N[C@@H](CC(N)=O)C(=O)N[C@@H](C)C(=O)N[C@@H](CCCNC(=N)N)C(=O)N[C@H](C(=O)N[C@@H](CC(C)C)C(=O)N[C@@H](C)C(=O)N[C@@H](CCCNC(=N)N)C(=O)N[C@H](C(N)=O)C(C)C)[C@@H](C)CC)[C@@H](C)O)C(=O)O` [Compound 37] (H-IVLSLDVPIGLLQILLEQEKQEKEKQQAK([γGlu-Palmitoyl])TNARILARV-NH2), the EC50 came to 24.1 nM.

Regarding `CCCCCCCCCCCCCCCC(=O)N[C@@H](CCC(=O)N[C@@H](CCC(=O)NCCCC[C@H](NC(=O)[C@H](C)NC(=O)[C@H](CCC(N)=O)NC(=O)[C@H](CCC(N)=O)NC(=O)[C@H](CCCCN)NC(=O)[C@H](CCC(=O)O)NC(=O)[C@H](CCCCN)NC(=O)[C@H](CCC(=O)O)NC(=O)[C@H](CCC(N)=O)NC(=O)[C@H](CCCCN)NC(=O)[C@H](CCC(=O)O)NC(=O)[C@H](CCC(N)=O)NC(=O)[C@H](CCC(=O)O)NC(=O)[C@H](CC(C)C)NC(=O)[C@H](CC(C)C)NC(=O)[C@@H](NC(=O)[C@H](CCC(N)=O)NC(=O)[C@H](CC(C)C)NC(=O)[C@H](CC(C)C)NC(=O)CNC(=O)[C@@H](NC(=O)[C@@H]1CCCN1C(=O)[C@@H](NC(=O)[C@H](CC(=O)O)NC(=O)[C@H](CC(C)C)NC(=O)[C@H](CO)NC(=O)[C@H](CC(C)C)NC(=O)[C@@H](NC(=O)[C@@H](N)[C@@H](C)CC)C(C)C)C(C)C)[C@@H](C)CC)[C@@H](C)CC)C(=O)N[C@H](C(=O)N[C@@H](CC(N)=O)C(=O)N[C@@H](C)C(=O)N[C@@H](CCCNC(=N)N)C(=O)N[C@H](C(=O)N[C@@H](CC(C)C)C(=O)N[C@@H](C)C(=O)N[C@@H](CCCNC(=N)N)C(=O)N[C@H](C(N)=O)C(C)C)[C@@H](C)CC)[C@@H](C)O)C(=O)O)C(=O)O` [Compound 38] (H-IVLSLDVPIGLLQILLEQEKQEKEKQQAK([γGlu-γGlu-Palmitoyl])TNARILARV-NH2), the EC50 was 2.33 nM.

On to `CCCCCCCCCCCCCCCC(=O)N[C@@H](CCC(=O)NCCCC[C@H](NC(=O)[C@@H](NC(=O)[C@H](C)NC(=O)[C@H](CCC(N)=O)NC(=O)[C@H](CCC(N)=O)NC(=O)[C@H](CCCCN)NC(=O)[C@H](CCC(=O)O)NC(=O)[C@H](CCCCN)NC(=O)[C@H](CCC(=O)O)NC(=O)[C@H](CCC(N)=O)NC(=O)[C@H](CCCCN)NC(=O)[C@H](CCC(=O)O)NC(=O)[C@H](CCC(N)=O)NC(=O)[C@H](CCC(=O)O)NC(=O)[C@H](CC(C)C)NC(=O)[C@H](CC(C)C)NC(=O)[C@@H](NC(=O)[C@H](CCC(N)=O)NC(=O)[C@H](CC(C)C)NC(=O)[C@H](CC(C)C)NC(=O)CNC(=O)[C@@H](NC(=O)[C@@H]1CCCN1C(=O)[C@@H](NC(=O)[C@H](CC(=O)O)NC(=O)[C@H](CC(C)C)NC(=O)[C@H](CO)NC(=O)[C@H](CC(C)C)NC(=O)[C@@H](NC(=O)[C@@H](N)[C@@H](C)CC)C(C)C)C(C)C)[C@@H](C)CC)[C@@H](C)CC)[C@@H](C)O)C(=O)N[C@@H](CC(N)=O)C(=O)N[C@@H](C)C(=O)N[C@@H](CCCNC(=N)N)C(=O)N[C@H](C(=O)N[C@@H](CC(C)C)C(=O)N[C@@H](C)C(=O)N[C@@H](CCCNC(=N)N)C(=O)N[C@H](C(N)=O)C(C)C)[C@@H](C)CC)C(=O)O` [Compound 39] (H-IVLSLDVPIGLLQILLEQEKQEKEKQQATK([γGlu-Palmitoyl])NARILARV-NH2), for which the EC50 worked out at 27 nM.

In the case of `CC[C@H](C)[C@H](N)C(=O)N[C@H](C(=O)N[C@@H](CC(C)C)C(=O)N[C@@H](CO)C(=O)N[C@@H](CC(C)C)C(=O)N[C@@H](CC(=O)O)C(=O)N[C@H](C(=O)N1CCC[C@H]1C(=O)N[C@H](C(=O)NCC(=O)N[C@@H](CC(C)C)C(=O)N[C@@H](CC(C)C)C(=O)N[C@@H](CCC(N)=O)C(=O)N[C@@H](CCCCNC(=O)COCCOCCNC(=O)COCCOCCNC(=O)CC[C@H](NC(=O)CC[C@H](NC(=O)CCCCCCCCCCCCCCCCC(=O)O)C(=O)O)C(=O)O)C(=O)N[C@@H](CC(C)C)C(=O)N[C@@H](CC(C)C)C(=O)N[C@@H](CCC(=O)O)C(=O)N[C@@H](CCC(N)=O)C(=O)N[C@@H](CCC(=O)O)C(=O)N[C@@H](CCCCN)C(=O)N[C@@H](CCC(N)=O)C(=O)N[C@@H](CCC(=O)O)C(=O)N[C@@H](CCCCN)C(=O)N[C@@H](CCC(=O)O)C(=O)N[C@@H](CCCCN)C(=O)N[C@@H](CCC(N)=O)C(=O)N[C@@H](CCC(N)=O)C(=O)N[C@@H](C)C(=O)N[C@H](C(=O)N[C@H](C(=O)N[C@@H](CC(N)=O)C(=O)N[C@@H](C)C(=O)N[C@@H](CCC(N)=O)C(=O)N[C@H](C(=O)N[C@@H](CC(C)C)C(=O)N[C@@H](C)C(=O)N[C@@H](Cc1c[nH]cn1)C(=O)N[C@H](C(N)=O)C(C)C)[C@@H](C)CC)[C@@H](C)O)[C@@H](C)O)[C@@H](C)CC)C(C)C)C(C)C` [Compound 40] (H-IVLSLDVPIGLLQK([AEEA-AEEA-γGlu-γGlu-C18 diacid])LLEQEKQEKEKQQATTNAQILAHV-NH2), the EC50 is 55.9 nM.

With `CC[C@H](C)[C@H](N)C(=O)N[C@H](C(=O)N[C@@H](CC(C)C)C(=O)N[C@@H](CO)C(=O)N[C@@H](CC(C)C)C(=O)N[C@@H](CC(=O)O)C(=O)N[C@H](C(=O)N1CCC[C@H]1C(=O)N[C@H](C(=O)NCC(=O)N[C@@H](CC(C)C)C(=O)N[C@@H](CC(C)C)C(=O)N[C@@H](CCC(N)=O)C(=O)N[C@H](C(=O)N[C@@H](CCCCNC(=O)COCCOCCNC(=O)COCCOCCNC(=O)CC[C@H](NC(=O)CC[C@H](NC(=O)CCCCCCCCCCCCCCCCC(=O)O)C(=O)O)C(=O)O)C(=O)N[C@@H](CC(C)C)C(=O)N[C@@H](CCC(=O)O)C(=O)N[C@@H](CCC(N)=O)C(=O)N[C@@H](CCC(=O)O)C(=O)N[C@@H](CCCCN)C(=O)N[C@@H](CCC(N)=O)C(=O)N[C@@H](CCC(=O)O)C(=O)N[C@@H](CCCCN)C(=O)N[C@@H](CCC(=O)O)C(=O)N[C@@H](CCCCN)C(=O)N[C@@H](CCC(N)=O)C(=O)N[C@@H](CCC(N)=O)C(=O)N[C@@H](C)C(=O)N[C@H](C(=O)N[C@H](C(=O)N[C@@H](CC(N)=O)C(=O)N[C@@H](C)C(=O)N[C@@H](CCC(N)=O)C(=O)N[C@H](C(=O)N[C@@H](CC(C)C)C(=O)N[C@@H](C)C(=O)N[C@@H](Cc1c[nH]cn1)C(=O)N[C@H](C(N)=O)C(C)C)[C@@H](C)CC)[C@@H](C)O)[C@@H](C)O)[C@@H](C)CC)[C@@H](C)CC)C(C)C)C(C)C` [Compound 41] (H-IVLSLDVPIGLLQIK([AEEA-AEEA-γGlu-γGlu-C18 diacid])LEQEKQEKEKQQATTNAQILAHV-NH2), the EC50 came out at 207 nM.
